Results: PubChem BioAssay (NCI)
“And” between values parts separate entries of the source, which are not always exact repeats. Equal values may be shown once.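 The compound was tested at five concentrations on cells cultured in 96-well plates, with a 48-hour exposure period. Here, GI50 denotes the concentration required for 50% inhibition of growth. At the TGI there is no net growth.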

What was measured:
Assay in all cases: DTP human tumour cell line panel, 48 h
EKVX NSCLC = test system: EKVX NSCLC
BT-549 breast = test system: BT-549 breast
NCI-H522 lung = test system: NCI-H522 lung
A549 NSCLC = test system: A549 NSCLC
RPMI-8226 leukemia = test system: RPMI-8226 leukemia
SN12C renal = test system: SN12C renal
SW-620 colon = test system: SW-620 colon
SNB-19 CNS = test system: SNB-19 CNS
ACHN renal = test system: ACHN renal
NCI-H23 lung = test system: NCI-H23 lung

Row | SMILES | GI50 (EKVX NSCLC) | TGI (EKVX NSCLC) | GI50 (BT-549 breast) | TGI (BT-549 breast) | GI50 (NCI-H522 lung) | TGI (NCI-H522 lung) | GI50 (A549 NSCLC) | TGI (A549 NSCLC) | GI50 (RPMI-8226 leukemia) | TGI (RPMI-8226 leukemia) | GI50 (SN12C renal) | TGI (SN12C renal) | GI50 (SW-620 colon) | TGI (SW-620 colon) | GI50 (SNB-19 CNS) | TGI (SNB-19 CNS) | GI50 (ACHN renal) | TGI (ACHN renal) | GI50 (NCI-H23 lung) | TGI (NCI-H23 lung)
1 | CCN(CC)CCOc1nc2ccccc2c2c1-c1ccc(OC)cc1C2=O | 1.59 µM | 4.79 µM | 3.29 µM | 13.8 µM | 0.613 µM | 2.4 µM | 0.514 µM | 4.55 µM | 0.449 µM | 2.15 µM | 0.502 µM | 6.21 µM | 0.282 µM | 1.58 µM | 0.788 µM | 6.6 µM | 0.364 µM | 2.02 µM | 1.27 µM | 4.07 µM
2 | O=C1C2=C(C(=O)c3ccccc31)C(O)(S(=O)(=O)O)C(O)(S(=O)(=O)O)C1N=CC=CC21 (centres undefined) | 3.32 µM and 2.71 µM | 31.9 µM and 14.5 µM | 5.88 µM and 5.04 µM | 39.9 µM and 25.8 µM | 4.8 µM and 2.13 µM | 39.6 µM and 5.71 µM | 4.75 µM and 4.09 µM | 37.1 µM and 16.1 µM | 4.99 µM and 3.99 µM | > 100 µM and 27.6 µM | 4.84 µM and 3.25 µM | > 100 µM and 14.1 µM | 3.65 µM and 4.29 µM | 96.9 µM and 17.2 µM | 4.28 µM and 5.5 µM | 44.4 µM and > 100 µM | 4.47 µM and 3.83 µM | 39.2 µM and 19.3 µM | 3.87 µM and 3.49 µM | 27.6 µM and 18.8 µM
3 | COc1ccc2c3ccnc(C(F)(F)F)c3n(CCCCN)c2c1 | 5.42 µM | 23.6 µM | 3.04 µM | 12.5 µM | 6.22 µM | 21.4 µM | 11.6 µM | 26.3 µM | 3.05 µM | 15.8 µM | 10.5 µM | 28.7 µM | 3.28 µM | 14.6 µM | 12.2 µM | 30.7 µM | 4.58 µM | 16.1 µM | 8.65 µM | 22.2 µM
4 | COc1cc2[nH]c3c(c2cc1OC)CCN[C@@]31CC[C@@]2(CC3c4c(cc(OC)c(O)c42)CCN3C)C[C@@H]1OC (some centres undefined) |  | > 46.4 µM |  | > 71.3 µM |  | 66.7 µM |  | > 100 µM |  | > 56.2 µM |  | > 100 µM |  | > 92.2 µM |  | > 100 µM |  | > 100 µM |  | > 100 µM
5 | Cc1[nH]nc(C(F)(F)F)c1Cc1sc2c(c1C(=O)N1C[C@](C)(O)CO1)c(=O)n(C)c(=O)n2C(C)C | > 100 µM | > 100 µM | > 100 µM | > 100 µM | 3.26 µM | > 100 µM | > 100 µM | > 100 µM | > 100 µM | > 100 µM | > 100 µM | > 100 µM | > 100 µM | > 100 µM | > 100 µM | > 100 µM | > 100 µM | > 100 µM | > 100 µM | > 100 µM
6 | CCN1CCN(c2ccc(NC(=O)Nc3nc4ccc(-c5ccccc5OC)cc4s3)cc2)CC1 | 1.51 µM | 3.12 µM | 1.88 µM | 3.73 µM | 1.75 µM | 3.5 µM | 1.98 µM | 3.59 µM | 2.06 µM | 4.6 µM | 1.77 µM | 3.37 µM | 1.94 µM | 3.55 µM | 2.03 µM | 3.65 µM | 1.74 µM | 3.11 µM | 1.67 µM | 3.65 µM
7 | Cn1nc(C(F)(F)F)cc1-c1cc(Cl)c(OCc2ccc(Cl)cc2)c(-c2ccc(Cl)c(C(F)(F)F)c2)c1O | 1.21 µM | 5.41 µM | 0.995 µM | 2.75 µM | 0.731 µM | 5.09 µM | 1.41 µM | 5.6 µM | 0.712 µM | 2.55 µM | 0.785 µM | 4.58 µM | 1.38 µM | 5.38 µM | 1.16 µM | 6.72 µM | 1.39 µM | 4.6 µM | 0.965 µM | 3.86 µM
8 | CC1=CC2(C)/C=C(C)/C=C\CC(O)/C=C3/C=CC(=C4C(=O)OC2(CC1C)C4=O)OC3 (centres undefined) | 3.09 µM | > 31.7 µM | 2.11 µM | 4.79 µM | 2.46 µM | 8.55 µM | 3.66 µM | 16.8 µM | 0.328 µM |  | 1.92 µM | 5.01 µM | 0.512 µM | 2.72 µM | 12 µM | 25.9 µM | 1.32 µM | 2.67 µM | 2.66 µM | 7.82 µM
9 | [N-]=[N+]=C(C(=O)CN1CCCC1=O)S(=O)(=O)c1ccccc1 |  | > 100 µM |  | > 100 µM |  | > 100 µM |  | > 100 µM |  | > 100 µM |  | > 100 µM |  | > 100 µM |  | > 100 µM |  | > 100 µM |  | > 100 µM
10 | Clc1ccc2c(NC3CCC(N4CCCCC4)CC3)ccnc2c1 (centres undefined) |  | > 100 µM |  | 42.8 µM |  | 51.6 µM |  | > 100 µM |  | 84 µM |  | > 100 µM |  | > 100 µM |  | > 100 µM |  | > 100 µM |  | > 100 µM
11 | CC1Cc2c(Cl)ncnc2N(C)c2ccccc21 (centres undefined) | 3.13 µM | > 100 µM | 5 µM | 33.9 µM | 1.76 µM | 3.7 µM | 4.85 µM | > 100 µM | 3.54 µM | 16.4 µM | 3.4 µM | 15.5 µM | 3.08 µM | 11.2 µM | 4.72 µM | > 100 µM | 3.79 µM | > 100 µM | 2.82 µM | 10.9 µM
12 | COc1cc(OC)c(/C=C/C(=O)c2c(OC)cc(OC)cc2OC)c(OC)c1 | 3.61 µM | > 100 µM | 0.931 µM | > 24.5 µM | 0.515 µM | 4.18 µM | 1.72 µM | > 76.3 µM | 0.566 µM | 3.03 µM | 1.81 µM | > 74.4 µM | 0.417 µM | 2.91 µM | 2.54 µM | 14.9 µM | 2.3 µM | > 100 µM | 1.35 µM | 6.67 µM
13 | CC(=O)OC1CC2(C)C(=CC1C1SCCS1)CCC1C2CCC2(C)C(OC(C)=O)CCC12 (centres undefined) |  | > 100 µM |  | > 100 µM |  | > 100 µM |  | > 100 µM |  | > 100 µM |  | > 100 µM |  | > 100 µM |  | > 100 µM |  | > 100 µM |  | > 100 µM
14 | Nc1nc2cc(Cl)ccc2n1N |  | > 100 µM |  | > 100 µM |  | > 100 µM |  | > 100 µM |  | > 100 µM |  | > 100 µM |  | > 100 µM |  | > 100 µM |  | > 100 µM |  | > 100 µM
